Patent US20040018210A1, “Cholesterol-lowering agent” (priority 2001, published 2004)

These compounds were tested on T9A4 human hepatic cells (assay: In vitro analysis of the hypocholesterolaemic effect: de novo synthesis of cholesterol measured by incorporation of C14-acetate). Settings: main purified oxylanosterol molecules.
Type: cell-based
Experimental: In the present context, the hypocholesterolaemic effect of the present product is evaluated in a qualitative manner on the model of T9A4 human hepatic cells cultured in vitro. Although it is known that such results cannot be transferred directly to man in vivo, they nevertheless provide useful indications. The hypocholesterolaemic effect is evaluated by measurement of the de novo synthesis of cholesterol on human hepatic cells in culture by measuring the incorporation of C^14-acetate. A means of evaluation of this de novo synthesis is described in a method presented below.
T9A4 human hepatic cells are grown on LCM medium (Biofluids, Rockville, Md.) at 37° C. under 3.5% CO2. The cells are seeded in 24-well culture boxes and incubated to confluence with 1 mM C14-acetate (1 mCi/mol, Amersham) for 20 hours in the absence (control) or in the presence of the extract rich in oxygenated derivatives of lanosterol obtained from fungi and/or purified fractions, dissolved in methanol.
A lipid extraction is carried out by incubation in a hexane:isopropanol (3:2) mixtures for 30 minutes at ambient temperature. The extract is then dried under nitrogen and then redissolved in hexane and subjected to thin layer high performance chromatography (Merck, Darmstadt, Germany) with a hexane:diethyl ether:acetic acid (75:25:1) mixture as the solvent. The cholesterol neosynthesis is determined by measuring the incorporation of C^14-acetate within the cholesterol with the aid of an imager (Camberra Packard, Zurich, Switzerland) and is expressed in % of the control.
ID50 represents the dose which inhibits the cholesterol synthesis by 50%. It can be seen that the various extracts have a considerable hypocholesterolaemic activity.

In order of falling ID50:
1. C/C(=C\CC[C@@H](C)[C@H]1CC[C@@]2(C)C3=CC[C@H]4C(C)(C)[C@@H](O)CC[C@]4(C)C3=CC[C@]12C)CO [Ganoderol B]  10 μq/ml
2. C/C(C=O)=C\CC[C@@H](C)[C@H]1CC[C@@]2(C)C3=CC[C@H]4C(C)(C)C(=O)CC[C@]4(C)C3=CC[C@]12C [Ganoderal A]  7 μq/ml
3. C/C(=C\CC[C@@H](C)[C@H]1CC[C@@]2(C)C3=CC[C@H]4C(C)(C)C(=O)CC[C@]4(C)C3=CC[C@]12C)CO [Ganoderol A]  1 μq/ml
4. C/C(=C\CC[C@@H](C)[C@H]1CC[C@@]2(C)C3=CC[C@H]4C(C)(C)[C@@H](O)CC[C@]4(C)C3=CC[C@]12C)C(=O)O [Ganoderic acid Y]  0.5 μq/ml
